In article PMC4355085 (Cancer discovery, 2014) one finds IC50 data, which are given here for 1 compound.

In this assay the target is EphA2 (Homo sapiens, UniProt P29317). Kind of assay: cell-free kinase assay. Format: biochemical.

By IC50 is commonly meant the point on the concentration scale where inhibition reaches its midpoint. Higher therefore signals weaker potency.

EphA2, sequence (P29317 24-976): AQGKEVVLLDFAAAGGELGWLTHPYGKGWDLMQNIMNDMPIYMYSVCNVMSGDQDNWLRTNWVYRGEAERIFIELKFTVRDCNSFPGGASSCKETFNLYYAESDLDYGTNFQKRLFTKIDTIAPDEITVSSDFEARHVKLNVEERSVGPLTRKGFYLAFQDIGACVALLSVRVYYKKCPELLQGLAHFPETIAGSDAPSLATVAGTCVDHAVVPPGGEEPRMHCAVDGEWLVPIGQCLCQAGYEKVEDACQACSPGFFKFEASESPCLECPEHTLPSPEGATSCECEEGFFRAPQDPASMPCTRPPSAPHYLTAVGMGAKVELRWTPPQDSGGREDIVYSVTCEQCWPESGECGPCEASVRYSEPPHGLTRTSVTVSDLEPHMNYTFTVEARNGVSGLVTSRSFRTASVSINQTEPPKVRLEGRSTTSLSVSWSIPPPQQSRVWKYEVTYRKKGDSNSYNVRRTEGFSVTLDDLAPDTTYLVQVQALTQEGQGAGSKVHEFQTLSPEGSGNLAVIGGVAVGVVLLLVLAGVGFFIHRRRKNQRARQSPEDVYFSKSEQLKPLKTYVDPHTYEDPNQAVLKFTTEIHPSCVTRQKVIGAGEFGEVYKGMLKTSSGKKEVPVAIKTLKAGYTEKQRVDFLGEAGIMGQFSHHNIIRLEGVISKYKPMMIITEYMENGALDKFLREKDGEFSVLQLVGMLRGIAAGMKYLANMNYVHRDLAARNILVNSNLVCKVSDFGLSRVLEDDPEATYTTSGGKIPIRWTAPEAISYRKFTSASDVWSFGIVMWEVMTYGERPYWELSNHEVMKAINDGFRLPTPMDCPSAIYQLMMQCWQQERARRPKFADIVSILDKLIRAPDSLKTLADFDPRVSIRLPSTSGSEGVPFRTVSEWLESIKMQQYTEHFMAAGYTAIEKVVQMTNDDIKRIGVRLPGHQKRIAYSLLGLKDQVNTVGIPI

`CCN1CCN(Cc2ccc(NC(=O)c3ccc(C)c(/C=C/c4cnc5[nH]ccc5c4OC)c3)cc2C(F)(F)F)CC1` [HG-6-64-1] registered an IC50 of 77.1 nM.
